Laboratory results taken from DBAASP.
≈ marks a conversion by molar mass, not a printed value.

Columns and labels:
Test in all cases: ≥ marks a high value that may be exact or a test limit, other limits are often not marked, values filed in µg/mL are converted to µM
[1] = system: Enterococcus faecalis ATCC 29212
[2] = system: Pseudomonas aeruginosa ATCC 27853
[3] = system: Staphylococcus aureus ATCC BAA-44
[4] = system: Saccharomyces cerevisiae
[5] = system: Streptococcus pyogenes ATCC 19615
[6] = system: Staphylococcus aureus ATCC 25923
[7] = system: Candida parapsilosis ATCC 22019
[8] = system: Acinetobacter baumannii ATCC 19606
[9] = system: Staphylococcus aureus ST1065
[10] = system: Staphylococcus aureus ATCC 43300
[11] = system: Escherichia coli ML-35p
[12] = system: Escherichia coli ATCC 25922
[13] = system: Klebsiella pneumoniae ATCC 13883
[14] = system: Bacillus anthracis Sterne 34F2
[15] = system: Bacillus subtilis ATCC 9372
[16] = system: Micrococcus luteus
[17] = system: Neurospora crassa
[18] = system: Burkholderia thailandensis
[19] = system: Klebsiella aerogenes ATCC 13048
[20] = system: Staphylococcus aureus ATCC 29213
[21] = system: Bacillus cereus ATCC 11778
[22] = system: Salmonella enterica subsp. enterica serovar Typhimurium ATCC 14028
[23] = system: Staphylococcus aureus ATCC 29313
[24] = system: Xanthomonas axonopodis pv. glycines ISBF 327
[25] = system: Escherichia coli BL21AI
[26] = system: Micrococcus luteus ATCC 10240
[27] = system: Staphylococcus xylosus
[28] = system: Escherichia coli DH5alpha
[29] = system: Enterococcus faecium
[30] = system: Pseudomonas aeruginosa KCTC 1637
[31] = system: Bacillus subtilis KCTC 3068
[32] = system: Staphylococcus aureus KCTC 1621
[33] = system: Staphylococcus aureus
[34] = system: Salmonella typhimurium KCTC 1926
[35] = system: Escherichia coli KCTC 1682
[36] = system: Staphylococcus epidermidis KCTC 1917

With CC[C@H](C)[C@H](NC(=O)[C@H](Cc1cnc[nH]1)NC(=O)[C@@H]1CCCN1C(=O)[C@@H](NC(=O)[C@H](CC(C)C)NC(=O)[C@H](CO)NC(=O)[C@H](CC(C)C)NC(=O)[C@@H](N)Cc1ccccc1)[C@@H](C)CC)C(=O)N[C@H](C(=O)N[C@@H](CO)C(=O)NCC(=O)N[C@H](C(=O)N[C@@H](C)C(=O)N[C@@H](CO)C(=O)N[C@@H](CC(C)C)C(=O)N[C@@H](C)C(=O)N[C@@H](CCCCN)C(=O)N[C@@H](Cc1cnc[nH]1)C(=O)N[C@@H](Cc1ccccc1)C(N)=O)C(C)C)C(C)C [FLSLIPHIVSGVASLAKHF] the MIC [1] was 25 µM (≈ 50.9 µg/mL), the MIC [2] was 200 µM (≈ 407 µg/mL) and the MIC [3] was 6.25 µM (≈ 12.7 µg/mL). It also gave an MIC [4] of 6.25 µM (≈ 12.7 µg/mL), an MIC [5] of 1.56 µM (≈ 3.18 µg/mL) and an MIC [6] of 6.25 µM (≈ 12.7 µg/mL). For the same compound, the MIC [7] was ≥ 50 µM, the MIC [8] was 6.25 µM (≈ 12.7 µg/mL) and the MIC [9] was 6.25 µM (≈ 12.7 µg/mL). The MIC [10] was 6.25 µM (≈ 12.7 µg/mL), the MIC [11] was 30 µM (≈ 61.1 µg/mL) and the MIC [12] was 25 µM (≈ 50.9 µg/mL). For the same compound, the MIC [13] was 25 µM (≈ 50.9 µg/mL).

CC[C@H](C)[C@H](NC(=O)[C@@H]1CCCN1C(=O)CNC(=O)[C@@H]1CCCN1C(=O)[C@H](CCCN=C(N)N)NC(=O)[C@@H]1CCCN1C(=O)[C@H](CCC(N)=O)NC(=O)[C@H](CC(N)=O)NC(=O)[C@@H]1CCCN1C(=O)[C@H](CC(N)=O)NC(=O)[C@H](Cc1ccccc1)NC(=O)[C@@H]1CCCN1C(=O)[C@H](CO)NC(=O)[C@@H]1CCCN1C(=O)[C@H](CCCN=C(N)N)NC(=O)[C@@H](NC(=O)[C@H](CC(=O)O)NC(=O)[C@H](Cc1ccccc1)NC(=O)[C@@H](NC(=O)[C@@H]1CCCN1C(=O)CNC(=O)[C@H](CCC(N)=O)NC(=O)[C@H](Cc1cnc[nH]1)NC(=O)[C@H](CCCN=C(N)N)NC(=O)[C@@H](N)Cc1cnc[nH]1)[C@@H](C)CC)[C@@H](C)O)C(=O)N[C@@H](Cc1ccc(O)cc1)C(=O)O [HRHQGPIFDTRPSPFNPNQPRPGPIY] was tested, and the MIC [14] was ≥ 100 µM, the MIC [15] was ≥ 100 µM and the MIC [16] was 0.707 µM (≈ 2.14 µg/mL). For the same compound, the MIC [17] was 0.707 µM (≈ 2.14 µg/mL) and the MIC [18] was ≥ 50 µM.

In the case of CC[C@H](C)[C@H](N)C(=O)N[C@@H](CC(C)C)C(=O)NCC(=O)N[C@@H](CCCCN)C(=O)N[C@H](C(=O)N[C@@H](Cc1c[nH]c2ccccc12)C(=O)N[C@@H](CCC(=O)O)C(=O)NCC(=O)N[C@H](C(=O)N[C@@H](CCC(=O)O)C(=O)N[C@@H](CO)C(=O)N[C@@H](CC(C)C)C(=O)N[C@@H](Cc1ccccc1)C(N)=O)[C@@H](C)CC)[C@@H](C)CC [ILGKIWEGIESLF], the MIC [19] is reported as ≥ 66.5 µM, the MIC [20] is reported as > 66.5 µM and the MIC [21] is reported as ≥ 66.5 µM. The MIC [22] was > 66.5 µM and the MIC [12] was > 66.5 µM.

CC[C@H](C)[C@H](NC(=O)[C@@H](NC(=O)[C@H](CCCCN)NC(=O)CNC(=O)[C@H](C)NC(=O)[C@H](CC(C)C)NC(=O)[C@H](CC(N)=O)NC(=O)[C@H](CCCCN)NC(=O)[C@H](CC(C)C)NC(=O)[C@@H](NC(=O)[C@H](CC(=O)O)NC(=O)[C@H](Cc1ccccc1)NC(=O)[C@H](Cc1ccccc1)NC(=O)[C@@H](N)Cc1ccccc1)[C@@H](C)O)C(C)C)C(=O)NCC(=O)N[C@@H](C)C(=O)N[C@@H](CC(C)C)C(=O)N[C@H](C(N)=O)[C@@H](C)O [FFFDTLKNLAGKVIGALT] was tested, and the MIC [2] was 125 µM (≈ 244 µg/mL), the MIC [23] was ≥ 62 µM and the MIC [24] was ≥ 33 µM. For the same compound, the MIC [12] was 62 µM (≈ 121 µg/mL).

Compound CC[C@H](C)[C@H](NC(=O)[C@H](C)NC(=O)[C@H](CCCN=C(N)N)NC(=O)[C@@H]1CCCN1C(=O)[C@@H]1CCCN1C(=O)[C@H](CCCN=C(N)N)NC(=O)[C@@H]1CCCN1C(=O)[C@H](CCCN=C(N)N)NC(=O)[C@@H]1CCCN1C(=O)[C@H](CC(C)C)NC(=O)[C@H](Cc1ccc(O)cc1)NC(=O)[C@@H]1CCCN1C(=O)[C@@H]1CCCN1C(=O)[C@H](CCCCN)NC(=O)[C@H](CC(=O)O)NC(=O)[C@@H](N)C(C)C)C(=O)N[C@@H](Cc1ccc(O)cc1)C(=O)N[C@@H](CC(N)=O)C(=O)N[C@@H](CCCN=C(N)N)C(N)=O [VDKPPYLPRPRPPRAIYNR] has an MIC [25] of 13.9 µM (≈ 32 µg/mL) and an MIC [26] of 6.94 µM (≈ 16 µg/mL).

In the case of CC[C@H](C)[C@H](N)C(=O)N[C@@H](CC(C)C)C(=O)NCC(=O)N[C@@H](C)C(=O)N[C@H](C(=O)N[C@@H](Cc1c[nH]c2ccccc12)C(=O)N[C@@H](CC(N)=O)C(=O)NCC(=O)N[C@H](C(=O)N[C@@H](CCCCN)C(=O)N[C@@H](CO)C(=O)N[C@@H](CC(C)C)C(=O)N[C@@H](Cc1ccccc1)C(N)=O)C(C)C)C(C)C [ILGAVWNGVKSLF], the MIC [19] is reported as ≥ 71.2 µM, the MIC [20] is reported as > 71.2 µM and the MIC [21] is reported as ≥ 71.2 µM. For the same compound, the MIC [22] was > 71.2 µM and the MIC [12] was > 71.2 µM.

For CC[C@H](C)[C@H](NC(=O)CNC(=O)[C@H](CO)NC(=O)CN)C(=O)N[C@@H](CC(C)C)C(=O)N[C@H](C(=O)N[C@@H](CC(C)C)C(=O)N[C@H](C(=O)N[C@@H](CCCCN)C(=O)N[C@@H](CCCN=C(N)N)C(=O)N[C@@H](CCCCN)C(=O)O)[C@@H](C)CC)[C@@H](C)CC [GSGILILIKRK], the MIC [27] was ≥ 64 µM and the MIC [28] was ≥ 64 µM.

NCCCC[C@H](NC(=O)[C@H](CCCCN)NC(=O)[C@H](Cc1ccccc1)NC(=O)[C@@H]1CCCN1C(=O)[C@H](Cc1c[nH]c2ccccc12)NC(=O)[C@H](Cc1c[nH]c2ccccc12)NC(=O)[C@H](Cc1c[nH]c2ccccc12)NC(=O)[C@@H]1CCCN1C(=O)[C@H](Cc1ccccc1)NC(=O)[C@H](CCCCN)NC(=O)[C@@H](N)CCCCN)C(=O)O [KKFPWWWPFKK] gave an MIC [29] of 5.07 µM (≈ 8 µg/mL), an MIC [30] of 5.07 µM (≈ 8 µg/mL) and an MIC [31] of 1.27 µM (≈ 2 µg/mL). For the same compound, the MIC [32] was 2.54 µM (≈ 4 µg/mL), the MIC [33] was 3.58 µM (≈ 5.66 µg/mL) and the MIC [34] was 5.07 µM (≈ 8 µg/mL). For the same compound, the MIC [35] was 5.07 µM (≈ 8 µg/mL) and the MIC [36] was 0.634 µM (≈ 1 µg/mL).

In the case of NCCCC[C@H](NC(=O)[C@H](CCCN=C(N)N)NC(=O)[C@H](CCCCN)NC(=O)[C@H](CO)NC(=O)CNC(=O)[C@H](CO)NC(=O)CNC(=O)[C@H](CO)NC(=O)[C@H](CCCCN)NC(=O)[C@H](CCCN=C(N)N)NC(=O)[C@@H](N)CCCCN)C(=O)O [KRKSGSGSKRK], the MIC [27] is reported as ≥ 64 µM and the MIC [28] is reported as ≥ 64 µM.
